Measurements: PMC13239830, “Antimicrobial Peptides Induce Cell Death in Marginal Zone Lymphoma Models Resistant to Targeted Therapies” (EJHaem, 2026)
“Also recorded” adds a separate entry of the source. Peptide text beside a SMILES is read from it.

What was measured:
[1] = test system: Karpas1718 cells; assay type: cell-based, human; details: 72 h
Protocol: (§1) The established human cell lines VL51 1 and Karpas1718 2, derived from bona fide marginal zone lymphomas (MZL), and their derivatives with secondary resistance obtained by long exposure to the BTK inhibitor ibrutinib, the PI3Kδ inhibitor idelalisib or the PI3Kα/δ inhibitor copanlisib (three from VL51 3-5, and one from Karpas1718 6). Cell lines were cultured in RPMI supplemented with fetal bovine serum (FBS) (10%) and penicillin-streptomycin-neomycin (≈5,000 units penicillin, 5 mg streptomycin, and 10 mg neomycin/mL; Sigma-Aldrich, Darmstadt, Germany). Cell line identities were confirmed by periodic short tandem repeat (STR) DNA fingerprinting using the Promega GenePrint 10 System kit (B9510).
(§2) Cells were regularly tested for mycoplasma negativity using the MycoAlert Mycoplasma Detection Kit (Lonza, Visp, Switzerland).
(§3) […] Purity (>95%) was confirmed by reverse-phase high-performance liquid chromatography (RP-HPLC) while molecular masses were verified by mass spectrometry. Peptides were dissolved in nuclease-free water, and 2 mM stock solutions were prepared 7.
(§4) Antarctic peptides were synthesized by Caslo Aps (Caslo Aps Kongens, Lyngby, Denmark) with 98% purity. Purity was confirmed by reverse-phase high-performance liquid chromatography (RP-HPLC), and molecular masses were verified by mass spectrometry. As previously reported, the peptide stock concentration in nuclease-free water (1 mM) was determined spectrophotometrically.
(§5) In vitro cytotoxic activity
(§6) Cells were manually seeded into 96-well plates (VL51, 10’000 cells per well; SSK41, 20’000 cells per well; Karpas1718, 30’000 cells per well). Treatments were applied manually, and cell viability was assessed after 72 hours using 3-(4,5-dimethylthiazol-2-yl)-2,5-diphenyltetrazolium bromide (MTT).
(§7) After a 4-hour incubation, the reaction was terminated by adding sodium dodecyl sulfate (SDS) lysis buffer. Plates were analyzed with Cytation3, and IC50s were calculated using the 4-parameter logistic model (R environment or GraphPad Prism, Version 10.6.1). Antarctic peptides were tested at 40μM, with 1:2 dilutions down to 625 nM. Temporins were tested at 100μM, with 1:5 dilutions down to 32 nM. […]

[2] = test system: Karpas1718-Idel (idelalisib-resistant Karpas1718) cells; assay type: cell-based, human; details: 72 h
Protocol: as §1, §2, §3, §4, §5, §6, §7

[3] = test system: VL51 cells; assay type: cell-based, human; details: 72 h
Protocol: as §1, §2, §3, §4, §5, §6, §7

[4] = test system: VL51-Copa (copanlisib-resistant VL51) cells; assay type: cell-based, human; details: 72 h
Protocol: as §1, §2, §3, §4, §5, §6, §7

[5] = test system: VL51-Ibru (ibrutinib-resistant VL51) cells; assay type: cell-based, human; details: 72 h
Protocol: as §1, §2, §3, §4, §5, §6, §7

[6] = test system: VL51-Idel (idelalisib-resistant VL51) cells; assay type: cell-based, human; details: 72 h
Protocol: as §1, §2, §3, §4, §5, §6, §7

[7] = test system: MZL cell lines (VL51, Karpas1718) and resistant derivatives; assay: In vitro cytotoxic activity (MTT, 72 h), summary over the MZL cell line panel; assay type: cell-based; details: for activity in resistant models: derivatives resistant to BTK, PI3Kδ or PI3Kα/δ inhibitors
Protocol: For in vitro testing, we used two human MZL cell lines, VL51 and Karpas1718, along with derivative clones rendered resistant by prolonged exposure to the BTK inhibitor ibrutinib, the PI3Kδ inhibitor idelalisib, or the PI3Kα/δ inhibitor copanlisib (Table S1; methods described in the Supporting Information). […] The calculated IC50 values ranged from 5 to 10 µM (Table S2). […] These findings were validated by treating lymphoma cells and peripheral blood mononuclear cells (PBMCs) in parallel. […] While acquired resistance to BTK or PI3K inhibitors often involves secondary mutations in the drug‐binding site, activation of alternative kinases, or evasion of apoptosis through upregulation of anti‐apoptotic proteins, these adaptations are unlikely to protect tumor cells from AMP‐mediated membrane disruption. […]
as §1, §2, §3, §4, §5, §6, §7

[8] = test system: Karpas1718-Idel cells; assay: Cell death and membrane integrity by Annexin V/PI staining; assay type: cell-based, human; details: 10 µM, 1 and 2 h, flow cytometry
Protocol: as §1, §2, §3
as §4, with “spectrophotometrically. […]” for “spectrophotometrically.”
Subsequently, cells were stained with Annexin V and propidium iodide (PI) (Annexin V FITC Apoptosis Detection Kit, BMS500FI-300, Life Technologies) following the manufacturer ’s instructions and analyzed through flow cytometry and immunofluorescence (Leica Thunder microscope).
PBMCs. Flow cytometric (A) and immunofluorescence (B) analyses of Annexin V/PI staining in Karpas1718-Idel cells and PBMCs after 1- and 2-hour treatments with W-trematocine or Temporin L at 10 µM. (B) Representative images (100x magnification) show brightfield, Annexin V (green), and PI […]

[9] = test system: PBMCs; assay: as above; assay type: cell-based; details: 10 µM, 1 and 2 h, PBMCs treated in parallel, flow cytometry
Protocol: as §1
Cells were regularly tested for mycoplasma negativity using the MycoAlert Mycoplasma Detection Kit (Lonza, Visp, Switzerland). […]
Antarctic peptides were synthesized by Caslo Aps (Caslo Aps Kongens, Lyngby, Denmark) with 98% purity. […] As previously reported, the peptide stock concentration in nuclease-free water (1 mM) was determined spectrophotometrically. […]
Subsequently, cells were stained with Annexin V and propidium iodide (PI) (Annexin V FITC Apoptosis Detection Kit, BMS500FI-300, Life Technologies) following the manufacturer ’s instructions and analyzed through flow cytometry and immunofluorescence (Leica Thunder microscope). […]

[10] = test system: primary human fibroblasts; details: up to 25 µM, 24 h, ref [9]; cited from earlier work
[11] = test system: rabbit erythrocytes; details: ref [9]; cited from earlier work
[12] = test system: nonmalignant cells; details: prior studies; ref prior studies; cited from earlier work
Description: ABSTRACT Introduction Marginal zone lymphoma (MZL) is an indolent yet incurable B‐cell malignancy in which targeted agents such as BTK and PI3K inhibitors frequently fail due to resistance or toxicity. […] Methods Peptides were synthesized and tested for their anti‐proliferative activity in MZL cell lines. Results We evaluated the antitumor activity of seven natural AMPs, including Antarctic fish–derived trem ...

| IC50 [1] [µM] | IC50 [2] [µM] | IC50 [3] [µM] | IC50 [4] [µM] | IC50 [5] [µM] | IC50 [6] [µM] | Structure (SMILES) | anti-proliferative activity (in words) ([7]; MZL cell lines VL51, Karpas1718 and resistant derivatives) | cytotoxic effect ([7]; concentrations up to 50 µM, MZL cell lines) | activity in resistant models [7] | anti-lymphoma activity (Annexin V/PI staining) [8] | anti-lymphoma activity (Annexin V/PI staining) ([8]; listed as temporin L) | sensitivity of PBMCs (Annexin V/PI staining) ([9]; listed as temporin L) | IC50 ([7]; 72 h) [µM] | sensitivity of PBMCs (Annexin V/PI staining) [9] | cytotoxicity [10] | hemolysis [11] | toxicity toward nonmalignant cells [12] |
| --- | --- | --- | --- | --- | --- | --- | --- | --- | --- | --- | --- | --- | --- | --- | --- | --- | --- |
| 31 | 101 | 35.2 | 26.5 | 38.1 | 28.2 | CC[C@H](C)[C@H](NC(=O)CNC(=O)[C@H](CC(N)=O)NC(=O)[C@H](CC(C)C)NC(=O)[C@@H](NC(=O)[C@H](CCCNC(=N)N)NC(=O)CNC(=O)[C@@H](NC(=O)[C@@H](NC(=O)[C@@H]1CCCN1C(=O)[C@H](Cc1ccccc1)NC(=O)[C@@H](N)Cc1ccccc1)C(C)C)[C@@H](C)CC)[C@@H](C)CC)C(=O)N[C@@H](CC(C)C)C(N)=O [Temporin G] (H-FFPVIGRILNGIL-NH2; N-terminus assumed) |  |  |  |  |  |  |  |  |  |  |  |
| 7.5 | 10.1 | 8.9 | 7.4 | 9.6 | 6.4 | CC[C@H](C)[C@H](NC(=O)[C@H](CCCNC(=N)N)NC(=O)CNC(=O)[C@H](CC(C)C)NC(=O)[C@H](Cc1ccccc1)NC(=O)[C@H](CCCCN)NC(=O)[C@H](CO)NC(=O)[C@H](Cc1ccccc1)NC(=O)[C@H](Cc1c[nH]c2ccccc12)NC(=O)[C@H](CCC(N)=O)NC(=O)[C@@H](NC(=O)[C@@H](N)Cc1ccccc1)C(C)C)C(=O)N[C@@H](CC(C)C)C(N)=O [Temporin L] (H-FVQWFSKFLGRIL-NH2) |  |  | maintaining full activity in all resistant models | active in lymphoma cells | potent anti‐lymphoma activity | markedly less sensitive |  |  |  |  |  |
| > 40 | > 40 | > 40 | > 40 | > 40 | > 40 | CC[C@H](C)[C@H](NC(=O)CNC(=O)[C@H](CCCNC(=N)N)NC(=O)[C@H](Cc1ccc(O)cc1)NC(=O)[C@H](CC(C)C)NC(=O)[C@H](CCC(N)=O)NC(=O)[C@H](CO)NC(=O)[C@H](Cc1ccccc1)NC(=O)[C@@H](N)Cc1ccccc1)C(=O)N[C@H](C(=O)N[C@@H](CO)C(=O)N[C@H](C(=O)NCC(=O)N[C@@H](CCCCN)C(=O)N[C@@H](Cc1c[nH]cn1)C(=O)N[C@H](C(=O)N[C@@H](Cc1c[nH]cn1)C(=O)NCC(=O)N[C@@H](CC(C)C)C(=O)N[C@@H](CC(C)C)C(=O)N[C@@H](CO)C(=O)NCC(=O)O)[C@@H](C)CC)C(C)C)C(C)C [Trematocine-1] (H-FFSQLYRGIVSVGKHIHGLLSG-OH; N-terminus and C-terminus assumed) |  |  |  |  |  |  | 25 to 50 |  |  |  |  |
| 5 | 6.5 | 5.5 | 7.1 | 6.5 | 7.6 | CC[C@H](C)[C@H](NC(=O)CNC(=O)[C@H](CCCNC(=N)N)NC(=O)[C@H](CC(C)C)NC(=O)[C@H](CC(C)C)NC(=O)[C@H](Cc1c[nH]cn1)NC(=O)CNC(=O)[C@H](Cc1ccccc1)NC(=O)[C@@H](N)Cc1c[nH]c2ccccc12)C(=O)N[C@H](C(=O)N[C@@H](CO)C(=O)N[C@H](C(=O)NCC(=O)N[C@@H](CCCCN)C(=O)N[C@@H](Cc1c[nH]cn1)C(=O)N[C@H](C(=O)N[C@@H](Cc1c[nH]cn1)C(=O)NCC(=O)N[C@@H](CC(C)C)C(=O)N[C@H](C(=O)N[C@H](C(=O)NCC(=O)O)[C@@H](C)O)[C@@H](C)CC)[C@@H](C)CC)C(C)C)C(C)C [W-Trematocine] (H-WFGHLLRGIVSVGKHIHGLITG-OH; N-terminus and C-terminus assumed) |  |  | maintaining full activity in all resistant models | active in lymphoma cells; also recorded: potent anti‐lymphoma activity |  |  |  | markedly less sensitive | negligible cytotoxicity | minimal hemolysis | minimal toxicity |

The next lines start with the molecule.

| Structure (SMILES) | IC50 [1] [µM] | IC50 [2] [µM] | IC50 [3] [µM] | IC50 [4] [µM] | IC50 [5] [µM] | IC50 [6] [µM] | anti-proliferative activity (in words) ([7]; MZL cell lines VL51, Karpas1718 and resistant derivatives) | cytotoxic effect ([7]; concentrations up to 50 µM, MZL cell lines) | activity in resistant models [7] | anti-lymphoma activity (Annexin V/PI staining) [8] | anti-lymphoma activity (Annexin V/PI staining) ([8]; listed as temporin L) | sensitivity of PBMCs (Annexin V/PI staining) ([9]; listed as temporin L) | IC50 ([7]; 72 h) [µM] | sensitivity of PBMCs (Annexin V/PI staining) [9] | cytotoxicity [10] | hemolysis [11] | toxicity toward nonmalignant cells [12] |
| --- | --- | --- | --- | --- | --- | --- | --- | --- | --- | --- | --- | --- | --- | --- | --- | --- | --- |
| CSCC[C@H](NC(=O)CNC(=O)[C@H](Cc1c[nH]cn1)NC(=O)[C@@H](NC(=O)[C@H](CCCNC(=N)N)NC(=O)[C@H](CCC(=O)O)NC(=O)[C@H](C)NC(=O)[C@H](C)NC(=O)[C@@H](NC(=O)[C@H](CC(C)C)NC(=O)[C@H](C)NC(=O)[C@H](Cc1c[nH]cn1)NC(=O)CNC(=O)[C@@H](NC(=O)[C@H](Cc1c[nH]cn1)NC(=O)[C@H](CCCCN)NC(=O)[C@H](Cc1c[nH]c2ccccc12)NC(=O)[C@H](Cc1ccccc1)NC(=O)[C@H](CCC(=O)O)NC(=O)[C@@H](N)Cc1ccccc1)C(C)C)[C@@H](C)O)C(C)C)C(=O)N[C@@H](CC(C)C)C(=O)N[C@H](C(=O)NCC(=O)O)[C@@H](C)O [Chionodracine] (H-FEFWKHVGHALTAAERVHGMLTG-OH; N-terminus and C-terminus assumed) | > 40 | > 40 | > 40 | > 40 | > 40 | > 40 | inactive | no measurable cytotoxic effect |  |  |  |  |  |  |  |  |  |
| CC[C@H](C)[C@H](NC(=O)CNC(=O)[C@H](CO)NC(=O)[C@H](CC(C)C)NC(=O)[C@@H](NC(=O)[C@H](CCCNC(=N)N)NC(=O)CNC(=O)[C@@H](NC(=O)[C@H](CC(C)C)NC(=O)[C@@H]1CCCN1C(=O)[C@H](CC(C)C)NC(=O)[C@@H](N)Cc1ccccc1)[C@@H](C)CC)C(C)C)C(=O)N[C@@H](CC(C)C)C(N)=O [Temporin A] (H-FLPLIGRVLSGIL-NH2; N-terminus and C-terminus assumed) | 47.4 | 49 | 32 | 48.8 | 48.5 | 27.5 |  |  |  |  |  |  |  |  |  |  |  |
| CC[C@H](C)[C@H](NC(=O)[C@@H]1CCCN1C(=O)[C@H](CC(C)C)NC(=O)[C@@H](N)CC(C)C)C(=O)N[C@H](C(=O)NCC(=O)N[C@@H](CC(N)=O)C(=O)N[C@@H](CC(C)C)C(=O)N[C@@H](CC(C)C)C(=O)N[C@@H](CCCCN)C(=O)N[C@@H](CO)C(=O)N[C@@H](CC(C)C)C(=O)N[C@@H](CC(C)C)C(N)=O)C(C)C [Temporin B] (H-LLPIVGNLLKSLL-NH2; N-terminus and C-terminus assumed) | 44.1 | 71.4 | 38.2 | 47.7 | 45.4 | 31.6 |  |  |  |  |  |  |  |  |  |  |  |
